Measured values published in patent publication EP4786487A1, “PEPTIDE” (Peptidream Inc, priority 2023, dated 2025).
Starred links: 1 amine or outer side, 2 acyl side, 3 side chain; linkers in the order of their positions; H or OH if unused. Positions of bridges follow the written chain, without caps; N, C: chain ends. Non-standard residues stand in square brackets, D forms with d. Residues, ends and D or L forms follow the SMILES beside them. Phe(3-OCH2COOH) = N[C@@H](Cc1cccc(OCC(=O)O)c1)C(=O)O; Phe(4-COOH) = N[C@@H](Cc1ccc(C(=O)O)cc1)C(=O)O; Bip = N[C@@H](Cc1ccc(-c2ccccc2)cc1)C(=O)O; Gly(N(CH2)3COOH) = O=C(O)CCCNCC(=O)O; X1 = CCCCCCC[C@H](N[*:1])C(=O)[*:2]; NMeF = CN[C@@H](Cc1ccccc1)C(=O)O; NMeA = CN[C@@H](C)C(=O)O; Sar = CNCC(=O)O

Key:
Type in all cases: cell-based
[1] = biological target: T1, Myostatin (Homo sapiens, UniProt O14793); experiment: Reporter gene assay for myostatin signaling in HepG2 cell line, Evaluation Procedure (1), myostatin inhibition; conditions: Method A: Myostatin 10 ng/mL; read-out: IC50 (Luciferase) Myostatin HepG2
T1 construct: active myostatin (also called mature myostatin) is a homodimer consisting of two C-terminal growth factor domains; purchased R&D systems 788-G8/CF
T1 sequence (O14793 267-375): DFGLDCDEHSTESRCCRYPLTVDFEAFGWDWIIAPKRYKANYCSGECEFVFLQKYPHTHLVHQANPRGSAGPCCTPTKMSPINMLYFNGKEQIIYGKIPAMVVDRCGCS
Method in brief: (§1)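 IC50 derived from One-Glo luciferase luminescence after 20–24 h at 37 °C. Peptides titrated 4-fold at 0.006–100 nmol/L against myostatin or 0.12–2000 nmol/L against GDF-11 in HepG2 cells carrying a transfected CAGA12-luciferase reporter, kept in 0.1% BSA EMEM.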

[2] = system: Myostatin; experiment: as above; conditions: Method A; GDF-11 IC50 versus Myostatin IC50
Method in brief: as §1

[3] = biological target: T2, GDF-11 (Homo sapiens, UniProt O95390); experiment: Reporter gene assay for myostatin signaling in HepG2 cell line, Evaluation Procedure (1), GDF-11 inhibition; conditions: Method A: GDF-11 10 ng/mL; read-out: IC50 (Luciferase) GDF-11 HepG2
T2 construct: purchased R&D systems 1958-GD-G8/CF
T2 sequence (O95390 299-407): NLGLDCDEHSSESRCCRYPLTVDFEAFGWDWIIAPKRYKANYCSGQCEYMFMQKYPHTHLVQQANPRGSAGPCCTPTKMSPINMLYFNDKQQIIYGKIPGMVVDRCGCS
Method in brief: as §1

SMILES | IC50 [1] [µM] | Selectivity [2] | IC50 [3] [µM]
CC[C@H](C)[C@@H]1NC(=O)[C@H](Cc2ccccc2)N(C)C(=O)[C@H](Cc2ccc(O)cc2)NC(=O)[C@H](Cc2ccc(-c3ccccc3)cc2)NC(=O)[C@H](C)NC(=O)CN(CCCC(=O)O)C(=O)CSC[C@H](C(=O)O)NC(=O)[C@H](Cc2ccccc2)N(C)C(=O)[C@H](C)N(C)C(=O)[C@H](CC(C)C)NC(=O)[C@H](Cc2ccccc2)N(C)C(=O)[C@H](CCCNC(=N)N)NC(=O)[C@H](Cc2ccc(C(=O)O)cc2)NC(=O)[C@H](Cc2ccc(O)cc2)NC(=O)CN(C)C1=O [Myostatin_99_v176] ({CH2CO}-[Gly(N(CH2)3COOH)]A[Bip]Y[NMeF]I[Sar]Y[Phe(4-COOH)]R[NMeF]L[NMeA][NMeF][dC]-OH; thioether N-15) | 0.0173 | 22 | 0.377
CC[C@H](C)[C@@H]1NC(=O)[C@H](Cc2ccccc2)N(C)C(=O)[C@H](Cc2ccc(O)cc2)NC(=O)[C@H](Cc2c[nH]c3ccccc23)NC(=O)[C@H](C)NC(=O)CN(CCCC(=O)O)C(=O)CSC[C@H](C(=O)O)NC(=O)[C@H](Cc2ccccc2)N(C)C(=O)[C@H](C)N(C)C(=O)[C@H](CC(C)C)NC(=O)[C@H](Cc2ccccc2)N(C)C(=O)[C@H](CCCNC(=N)N)NC(=O)[C@H](Cc2ccc(C(=O)O)cc2)NC(=O)[C@H](Cc2ccc(O)cc2)NC(=O)[C@H](C)N(C)C1=O [Myostatin_99_v178] ({CH2CO}-[Gly(N(CH2)3COOH)]AWY[NMeF]I[NMeA]Y[Phe(4-COOH)]R[NMeF]L[NMeA][NMeF][dC]-OH; thioether N-15) | 0.0121 | 21 | 0.25
CCCCCCC[C@@H]1NC(=O)[C@H](Cc2ccccc2)N(C)C(=O)[C@H](CCCNC(=N)N)NC(=O)[C@H](Cc2ccc(C(=O)O)cc2)NC(=O)[C@H](Cc2ccc(O)cc2)NC(=O)CN(C)C(=O)[C@H]([C@@H](C)CC)NC(=O)[C@H](Cc2ccccc2)N(C)C(=O)[C@H](Cc2ccc(O)cc2)NC(=O)[C@H](Cc2ccc(-c3ccccc3)cc2)NC(=O)[C@H](C)NC(=O)CN(CCCC(=O)O)C(=O)CSC[C@H](C(=O)O)NC(=O)[C@H](Cc2ccccc2)N(C)C(=O)[C@H](C)N(C)C1=O [Myostatin_99_v179] ({CH2CO}-[Gly(N(CH2)3COOH)]A[Bip]Y[NMeF]I[Sar]Y[Phe(4-COOH)]R[NMeF][X1][NMeA][NMeF][dC]-OH; thioether N-15) | 0.0015 | 108 | 0.163
CCCCCCC[C@@H]1NC(=O)[C@H](Cc2ccccc2)N(C)C(=O)[C@H](CCCNC(=N)N)NC(=O)[C@H](Cc2ccc(C(=O)O)cc2)NC(=O)[C@H](Cc2ccc(O)cc2)NC(=O)[C@H](C)N(C)C(=O)[C@H]([C@@H](C)CC)NC(=O)[C@H](Cc2ccccc2)N(C)C(=O)[C@H](Cc2ccc(O)cc2)NC(=O)[C@H](Cc2c[nH]c3ccccc23)NC(=O)[C@H](C)NC(=O)CN(CCCC(=O)O)C(=O)CSC[C@H](C(=O)O)NC(=O)[C@H](Cc2ccccc2)N(C)C(=O)[C@H](C)N(C)C1=O [Myostatin_99_v181] ({CH2CO}-[Gly(N(CH2)3COOH)]AWY[NMeF]I[NMeA]Y[Phe(4-COOH)]R[NMeF][X1][NMeA][NMeF][dC]-OH; thioether N-15) | 0.0045 | 43 | 0.194
CC[C@H](C)[C@@H]1NC(=O)[C@H](Cc2ccccc2)N(C)C(=O)[C@H](Cc2ccc(O)cc2)NC(=O)[C@H](Cc2ccc(-c3ccccc3)cc2)NC(=O)[C@H](C)NC(=O)CN(CCCC(=O)O)C(=O)CSC[C@H](C(=O)O)NC(=O)[C@H](Cc2ccccc2)N(C)C(=O)[C@H](C)N(C)C(=O)[C@H](CC(C)C)NC(=O)[C@H](Cc2ccccc2)N(C)C(=O)[C@H](CCCNC(=N)N)NC(=O)[C@H](Cc2ccc(C(=O)O)cc2)NC(=O)[C@H](Cc2ccc(O)cc2)NC(=O)[C@H](C)N(C)C1=O [Myostatin_99_v182] ({CH2CO}-[Gly(N(CH2)3COOH)]A[Bip]Y[NMeF]I[NMeA]Y[Phe(4-COOH)]R[NMeF]L[NMeA][NMeF][dC]-OH; thioether N-15) | 0.053 | 26 | 1.36
CC[C@H](C)[C@@H]1NC(=O)[C@H](Cc2ccccc2)N(C)C(=O)[C@H](Cc2ccc(O)cc2)NC(=O)[C@H](Cc2ccc(-c3ccccc3)cc2)NC(=O)[C@H](C)NC(=O)CN(CCCC(=O)O)C(=O)CSC[C@H](C(=O)O)NC(=O)[C@H](Cc2ccccc2)N(C)C(=O)[C@H](C)N(C)C(=O)[C@H](CC(C)C)NC(=O)[C@H](Cc2ccccc2)N(C)C(=O)[C@H](CCCNC(=N)N)NC(=O)[C@H](Cc2ccc(C(=O)O)cc2)NC(=O)[C@H](Cc2cccc(OCC(=O)O)c2)NC(=O)CN(C)C1=O [Myostatin_99_v184] ({CH2CO}-[Gly(N(CH2)3COOH)]A[Bip]Y[NMeF]I[Sar][Phe(3-OCH2COOH)][Phe(4-COOH)]R[NMeF]L[NMeA][NMeF][dC]-OH; thioether N-15) | 0.0142 | 129 | 1.83
CC[C@H](C)[C@@H]1NC(=O)[C@H](Cc2ccccc2)N(C)C(=O)[C@H](Cc2ccc(O)cc2)NC(=O)[C@H](Cc2ccc(-c3ccccc3)cc2)NC(=O)[C@H](CO)NC(=O)CN(CCCC(=O)O)C(=O)CSC[C@H](C(=O)O)NC(=O)[C@H](Cc2ccccc2)N(C)C(=O)[C@H](C)N(C)C(=O)[C@H](CC(C)C)NC(=O)[C@H](Cc2ccccc2)N(C)C(=O)[C@H](CCCNC(=N)N)NC(=O)[C@H](Cc2ccc(C(=O)O)cc2)NC(=O)[C@H](Cc2ccc(O)cc2)NC(=O)CN(C)C1=O [Myostatin_99_v186] ({CH2CO}-[Gly(N(CH2)3COOH)]S[Bip]Y[NMeF]I[Sar]Y[Phe(4-COOH)]R[NMeF]L[NMeA][NMeF][dC]-OH; thioether N-15) | 0.0432 | 22 | 0.935
CC[C@H](C)[C@@H]1NC(=O)[C@H](Cc2ccccc2)N(C)C(=O)[C@H](Cc2ccc(O)cc2)NC(=O)[C@H](Cc2c[nH]c3ccccc23)NC(=O)[C@H](CO)NC(=O)CN(CCCC(=O)O)C(=O)CSC[C@H](C(=O)O)NC(=O)[C@H](Cc2ccccc2)N(C)C(=O)[C@H](C)N(C)C(=O)[C@H](CC(C)C)NC(=O)[C@H](Cc2ccccc2)N(C)C(=O)[C@H](CCCNC(=N)N)NC(=O)[C@H](Cc2ccc(C(=O)O)cc2)NC(=O)[C@H](Cc2ccc(O)cc2)NC(=O)[C@H](C)N(C)C1=O [Myostatin_99_v188] ({CH2CO}-[Gly(N(CH2)3COOH)]SWY[NMeF]I[NMeA]Y[Phe(4-COOH)]R[NMeF]L[NMeA][NMeF][dC]-OH; thioether N-15) | 0.0554 | 16 | 0.911
CC[C@H](C)[C@@H]1NC(=O)[C@H](Cc2ccccc2)N(C)C(=O)[C@H](Cc2ccc(O)cc2)NC(=O)[C@H](Cc2ccc(-c3ccccc3)cc2)NC(=O)[C@H](C)NC(=O)[C@H](C)NC(=O)CSC[C@H](C(=O)O)NC(=O)[C@H](Cc2ccccc2)N(C)C(=O)[C@H](C)N(C)C(=O)[C@H](CC(C)C)NC(=O)[C@H](Cc2ccccc2)N(C)C(=O)[C@H](CCCNC(=N)N)NC(=O)[C@H](Cc2ccc(C(=O)O)cc2)NC(=O)[C@H](Cc2ccc(O)cc2)NC(=O)CN(C)C1=O [Myostatin_99_v189] ({CH2CO}-AA[Bip]Y[NMeF]I[Sar]Y[Phe(4-COOH)]R[NMeF]L[NMeA][NMeF][dC]-OH; thioether N-15) | 0.0069 | 34 | 0.234
CC[C@H](C)[C@@H]1NC(=O)[C@H](Cc2ccccc2)N(C)C(=O)[C@H](Cc2ccc(O)cc2)NC(=O)[C@H](Cc2c[nH]c3ccccc23)NC(=O)[C@H](C)NC(=O)[C@H](C)NC(=O)CSC[C@H](C(=O)O)NC(=O)[C@H](Cc2ccccc2)N(C)C(=O)[C@H](C)N(C)C(=O)[C@H](CC(C)C)NC(=O)[C@H](Cc2ccccc2)N(C)C(=O)[C@H](CCCNC(=N)N)NC(=O)[C@H](Cc2ccc(C(=O)O)cc2)NC(=O)[C@H](Cc2ccc(O)cc2)NC(=O)[C@H](C)N(C)C1=O [Myostatin_99_v191] ({CH2CO}-AAWY[NMeF]I[NMeA]Y[Phe(4-COOH)]R[NMeF]L[NMeA][NMeF][dC]-OH; thioether N-15) | 0.0081 | 35 | 0.283
CC[C@H](C)[C@@H]1NC(=O)[C@H](Cc2ccccc2)N(C)C(=O)[C@H](Cc2ccc(O)cc2)NC(=O)[C@H](Cc2c[nH]c3ccccc23)NC(=O)[C@H](C)NC(=O)[C@H](C)NC(=O)CSC[C@H](C(=O)O)NC(=O)[C@H](Cc2ccccc2)N(C)C(=O)[C@H](C)N(C)C(=O)[C@H](CC(C)C)NC(=O)[C@H](Cc2ccccc2)N(C)C(=O)[C@H](CCCNC(=N)N)NC(=O)[C@H](Cc2ccc(C(=O)O)cc2)NC(=O)[C@H](Cc2cccc(OCC(=O)O)c2)NC(=O)CN(C)C1=O [Myostatin_99_v192] ({CH2CO}-AAWY[NMeF]I[Sar][Phe(3-OCH2COOH)][Phe(4-COOH)]R[NMeF]L[NMeA][NMeF][dC]-OH; thioether N-15) | 0.0121 | 170 | 2.06
CCCCCCC[C@@H]1NC(=O)[C@H](Cc2ccccc2)N(C)C(=O)[C@H](CCCNC(=N)N)NC(=O)[C@H](Cc2ccc(C(=O)O)cc2)NC(=O)[C@H](Cc2ccc(O)cc2)NC(=O)CN(C)C(=O)[C@H]([C@@H](C)CC)NC(=O)[C@H](Cc2ccccc2)N(C)C(=O)[C@H](Cc2ccc(O)cc2)NC(=O)[C@H](Cc2c[nH]c3ccccc23)NC(=O)[C@H](C)NC(=O)[C@H](C)NC(=O)CSC[C@H](C(=O)O)NC(=O)[C@H](Cc2ccccc2)N(C)C(=O)[C@H](C)N(C)C1=O [Myostatin_99_v193] ({CH2CO}-AAWY[NMeF]I[Sar]Y[Phe(4-COOH)]R[NMeF][X1][NMeA][NMeF][dC]-OH; thioether N-15) | 0.001 | 57 | 0.057
